Biological target: recombinant human His-ATG7 enzyme (Homo sapiens (Human), UniProt O95352)
Assay: ATG7 Enzyme Assay (HTRF/FRET, ATG3-GST and Flag-Gabarap)
Assay type: biochemical
Conditions: for inhibition at 0.123 µM: Concentration 0.123 μM; for inhibition at 0.123 µM / inhibition at 0.069 µM / inhibition at 0.111 µM: read-out: Percent Inhibition; for inhibition at 0.069 µM: Concentration 0.069 μM; for inhibition at 0.111 µM: Concentration 0.111 μM
Summary of the method: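 0.15 nM His-ATG7 was reacted with 5 nM ATG3-GST, 5 nM Flag-Gabarap and 10 μM ATP in HEPES pH 7.5 containing MgCl2, GSH and TCEP for 105 min at 24° C, then stopped with EDTA/KF. Eu-anti-Flag and anti-GST-APC HTRF was read after 2 h. Results are given as single-concentration % inhibition or IC50.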

recombinant human His-ATG7 enzyme, sequence (O95352 whole entry): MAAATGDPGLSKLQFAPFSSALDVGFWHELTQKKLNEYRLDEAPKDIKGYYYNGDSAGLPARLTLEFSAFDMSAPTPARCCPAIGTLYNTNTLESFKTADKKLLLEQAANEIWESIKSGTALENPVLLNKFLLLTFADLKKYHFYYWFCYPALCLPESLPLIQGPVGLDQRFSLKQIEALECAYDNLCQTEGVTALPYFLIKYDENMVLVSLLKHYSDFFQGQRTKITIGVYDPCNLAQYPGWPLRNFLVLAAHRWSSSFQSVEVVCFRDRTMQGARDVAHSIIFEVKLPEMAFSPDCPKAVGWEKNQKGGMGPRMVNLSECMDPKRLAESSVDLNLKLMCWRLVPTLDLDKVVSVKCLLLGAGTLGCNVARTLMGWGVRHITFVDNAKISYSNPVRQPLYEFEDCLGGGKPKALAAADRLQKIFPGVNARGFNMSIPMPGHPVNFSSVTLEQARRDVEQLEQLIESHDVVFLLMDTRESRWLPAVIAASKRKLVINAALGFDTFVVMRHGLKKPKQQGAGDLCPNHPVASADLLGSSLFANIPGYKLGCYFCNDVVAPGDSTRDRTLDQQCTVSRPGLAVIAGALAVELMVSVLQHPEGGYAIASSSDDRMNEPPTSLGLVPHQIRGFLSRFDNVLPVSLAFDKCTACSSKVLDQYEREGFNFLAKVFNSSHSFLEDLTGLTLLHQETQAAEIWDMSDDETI

IC50	inhibition at 0.123 µM	inhibition at 0.069 µM	inhibition at 0.111 µM	Structure (SMILES)
20 to 50 nM	84%	–	–	Nc1ncnc2c1c(SCc1cccc(F)c1)nn2[C@@H]1O[C@H](COS(N)(=O)=O)[C@@H](O)[C@H]1O [Compound I-44, [(2R,3S,4R,5R)-5-{4-amino-3-[(3-fluorobenzyl)sulfanyl]-1H-pyrazolo[3,4-d]pyrimidin-1-yl}-3,4-dihydroxytetrahydrofuran-2-yl]methyl sulfamate]
20 to 50 nM	73%	–	–	Nc1ncnc2c1c(SCc1cccnc1)nn2[C@@H]1O[C@H](COS(N)(=O)=O)[C@@H](O)[C@H]1O [Compound I-45, [(2R,3S,4R,5R)-5-{4-amino-3-[(pyridin-3-ylmethyl)sulfanyl]-1H-pyrazolo[3,4-d]pyrimidin-1-yl}-3,4-dihydroxytetrahydrofuran-2-yl]methyl sulfamate]
< 20 nM	88%	–	–	Nc1ncnc2c1c(SCCO)nn2[C@@H]1O[C@H](COS(N)(=O)=O)[C@@H](O)[C@H]1O [Compound I-46, [(2R,3S,4R,5R)-5-{4-amino-3-[(2-hydroxyethyl)sulfanyl]-1H-pyrazolo[3,4-d]pyrimidin-1-yl}-3,4-dihydroxytetrahydrofuran-2-yl]methyl sulfamate]
100 to 500 nM	–	16%	–	Nc1ncnc2c1cnn2[C@@H]1O[C@H](COS(N)(=O)=O)[C@@H](O)[C@H]1O [Compound I-48, [(2R,3S,4R,5R)-5-(4-amino-1H-pyrazolo[3,4-d]pyrimidin-1-yl)-3,4-dihydroxytetrahydrofuran-2-yl]methyl sulfamate]
> 500 nM	–	7%	–	Nc1ncnc2c1c(-c1ccccc1)nn2[C@@H]1O[C@H](COS(N)(=O)=O)[C@@H](O)[C@H]1O [Compound I-49, [(2R,3S,4R,5R)-5-(4-amino-3-phenyl-1H-pyrazolo[3,4-d]pyrimidin-1-yl)-3,4-dihydroxytetrahydrofuran-2-yl]methyl Sulfamate]
< 20 nM	–	–	88%	Nc1ncnc2c1c(SCC1CC1)nn2[C@@H]1O[C@H](COS(N)(=O)=O)[C@@H](O)[C@H]1O [Compound I-50, [(2R,3S,4R,5R)-5-{4-amino-3-[(cyclopropylmethyl)sulfanyl]-1H-pyrazolo[3,4-d]pyrimidin-1-yl}-3,4-dihydroxytetrahydrofuran-2-yl]methyl sulfamate]
20 to 50 nM	85%	–	–	CCSc1nn([C@@H]2O[C@H](COS(N)(=O)=O)[C@@H](O)[C@H]2O)c2ncnc(N)c12 [Compound I-51, {(2R,3S,4R,5R)-5-[4-amino-3-(ethylsulfanyl)-1H-pyrazolo[3,4-d]pyrimidin-1-yl]-3,4-dihydroxytetrahydrofuran-2-yl}methyl sulfamate]
20 to 50 nM	83%	–	–	Nc1ncnc2c1c(SCc1ccccc1)nn2[C@@H]1O[C@H](COS(N)(=O)=O)[C@@H](O)[C@H]1O [Compound I-52, {(2R,3S,4R,5R)-5-[4-amino-3-(benzylsulfanyl)-1H-pyrazolo[3,4-d]pyrimidin-1-yl]-3,4-dihydroxytetrahydrofuran-2-yl}methyl sulfamate]
20 to 50 nM	82%	–	–	CC(C)(C)Sc1nn([C@@H]2O[C@H](COS(N)(=O)=O)[C@@H](O)[C@H]2O)c2ncnc(N)c12 [Compound I-53, {(2R,3S,4R,5R)-5-[4-amino-3-(tert-butylsulfanyl)-1H-pyrazolo[3,4-d]pyrimidin-1-yl]-3,4-dihydroxytetrahydrofuran-2-yl}methyl sulfamate]
< 20 nM	–	–	84%	Nc1ncnc2c1c(SC1CCC1)nn2[C@@H]1O[C@H](COS(N)(=O)=O)[C@@H](O)[C@H]1O [Compound I-56, {(2R,3S,4R,5R)-5-[4-amino-3-(cyclobutylsulfanyl)-1H-pyrazolo[3,4-d]pyrimidin-1-yl]-3,4-dihydroxytetrahydrofuran-2-yl}methyl sulfamate]
> 500 nM	13%	–	–	Nc1ncnc2c1c(-c1ncco1)nn2[C@@H]1O[C@H](COS(N)(=O)=O)[C@@H](O)[C@H]1O [Compound I-57, {(2R,3S,4R,5R)-5-[4-amino-3-(1,3-oxazol-2-yl)-1H-pyrazolo[3,4-d]pyrimidin-1-yl]-3,4-dihydroxytetrahydrofuran-2-yl}methyl sulfamate]
< 20 nM	87%	–	–	CC(C)Sc1nn([C@@H]2O[C@H](COS(N)(=O)=O)[C@@H](O)[C@H]2O)c2ncnc(N)c12 [Compound I-58, {(2R,3S,4R,5R)-5-[4-amino-3-(isopropylsulfanyl)-1H-pyrazolo[3,4-d]pyrimidin-1-yl]-3,4-dihydroxytetrahydrofuran-2-yl}methyl Sulfamate]
20 to 50 nM	75%	–	–	Nc1ncnc2c1c(SCc1ccccn1)nn2[C@@H]1O[C@H](COS(N)(=O)=O)[C@@H](O)[C@H]1O [Compound I-59, [(2R,3S,4R,5R)-5-{4-amino-3-[(pyridin-2-ylmethyl)sulfanyl]-1H-pyrazolo[3,4-d]pyrimidin-1-yl}-3,4-dihydroxytetrahydrofuran-2-yl]methyl sulfamate]
50 to 100 nM	59%	–	–	NC(=S)c1nn([C@@H]2O[C@H](COS(N)(=O)=O)[C@@H](O)[C@H]2O)c2ncnc(N)c12 [Compound I-60, [(2R,3S,4R,5R)-5-(4-amino-3-carbamothioyl-1H-pyrazolo[3,4-d]pyrimidin-1-yl)-3,4-dihydroxytetrahydrofuran-2-yl]methyl Sulfamate]
20 to 50 nM	83%	–	–	Cn1cc(Sc2nn([C@@H]3O[C@H](COS(N)(=O)=O)[C@@H](O)[C@H]3O)c3ncnc(N)c23)cn1 [Compound I-61, [(2R,3S,4R,5R)-5-{4-amino-3-[(1-methyl-1H-pyrazol-4-yl)sulfanyl]-1H-pyrazolo[3,4-d]pyrimidin-1-yl}-3,4-dihydroxytetrahydrofuran-2-yl]methyl sulfamate]
< 20 nM	89%	–	–	Nc1ncnc2c1c(SC1CCCC1)nn2[C@@H]1O[C@H](COS(N)(=O)=O)[C@@H](O)[C@H]1O [Compound I-62, {(2R,3S,4R,5R)-5-[4-amino-3-(cyclopentylsulfanyl)-1H-pyrazolo[3,4-d]pyrimidin-1-yl]-3,4-dihydroxytetrahydrofuran-2-yl}methyl sulfamate]
20 to 50 nM	–	–	83%	Nc1ncnc2c1c(SCc1ccc(F)cc1)nn2[C@@H]1O[C@H](COS(N)(=O)=O)[C@@H](O)[C@H]1O [Compound I-63, [(2R,3S,4R,5R)-5-{4-amino-3-[(4-fluorobenzyl)sulfanyl]-1H-pyrazolo[3,4-d]pyrimidin-1-yl}-3,4-dihydroxytetrahydrofuran-2-yl]methyl sulfamate]
20 to 50 nM	84%	–	–	Nc1ncnc2c1c(Sc1ccc(Cl)cc1)nn2[C@@H]1O[C@H](COS(N)(=O)=O)[C@@H](O)[C@H]1O [Compound I-64, [(2R,3S,4R,5R)-5-{4-amino-3-[(4-chlorophenyl)sulfanyl]-1H-pyrazolo[3,4-d]pyrimidin-1-yl}-3,4-dihydroxytetrahydrofuran-2-yl]methyl sulfamate]
< 20 nM	89%	–	–	Nc1ncnc2c1c(SC1CC1)nn2[C@@H]1O[C@H](COS(N)(=O)=O)[C@@H](O)[C@H]1O [Compound I-65, {(2R,3S,4R,5R)-5-[4-amino-3-(cyclopropylsulfanyl)-1H-pyrazolo[3,4-d]pyrimidin-1-yl]-3,4-dihydroxytetrahydrofuran-2-yl}methyl Sulfamate]
20 to 50 nM	68%	–	–	Nc1ncnc2c1c(Sc1ccncc1)nn2[C@@H]1O[C@H](COS(N)(=O)=O)[C@@H](O)[C@H]1O [Compound I-66, {(2R,3S,4R,5R)-5-[4-amino-3-(pyridin-4-ylsulfanyl)-1H-pyrazolo[3,4-d]pyrimidin-1-yl]-3,4-dihydroxytetrahydrofuran-2-yl}methyl sulfamate]
50 to 100 nM	64%	–	–	Nc1ncnc2c1c(SCc1cccc3ccccc13)nn2[C@@H]1O[C@H](COS(N)(=O)=O)[C@@H](O)[C@H]1O [Compound I-67, [(2R,3S,4R,5R)-5-{4-amino-3-[(1-naphthylmethyl)sulfanyl]-1H-pyrazolo[3,4-d]pyrimidin-1-yl}-3,4-dihydroxytetrahydrofuran-2-yl]methyl sulfamate]
> 500 nM	10%	–	–	Nc1ncnc2c1c(-c1ccn[nH]1)nn2[C@@H]1O[C@H](COS(N)(=O)=O)[C@@H](O)[C@H]1O [Compound I-68, {(2R,3S,4R,5R)-5-[4-amino-3-(1H-pyrazol-5-yl)-1H-pyrazolo[3,4-d]pyrimidin-1-yl]-3,4-dihydroxytetrahydrofuran-2-yl}methyl sulfamate]
< 20 nM	–	–	86%	Cc1cccc(Sc2nn([C@@H]3O[C@H](COS(N)(=O)=O)[C@@H](O)[C@H]3O)c3ncnc(N)c23)c1 [Compound I-69, [(2R,3S,4R,5R)-5-{4-amino-3-[(3-methylphenyl)sulfanyl]-1H-pyrazolo[3,4-d]pyrimidin-1-yl}-3,4-dihydroxytetrahydrofuran-2-yl]methyl sulfamate]
100 to 500 nM	38%	–	–	C=CCOc1nn([C@@H]2O[C@H](COS(N)(=O)=O)[C@@H](O)[C@H]2O)c2ncnc(N)c12 [Compound I-71, {(2R,3S,4R,5R)-5-[3-(allyloxy)-4-amino-1H-pyrazolo[3,4-d]pyrimidin-1-yl]-3,4-dihydroxytetrahydrofuran-2-yl}methyl Sulfamate]
50 to 100 nM	65%	–	–	Nc1ncnc2c1c(SC1CNC1)nn2[C@@H]1O[C@H](COS(N)(=O)=O)[C@@H](O)[C@H]1O [Compound I-72, {(2R,3S,4R,5R)-5-[4-amino-3-(azetidin-3-ylsulfanyl)-1H-pyrazolo[3,4-d]pyrimidin-1-yl]-3,4-dihydroxytetrahydrofuran-2-yl}methyl sulfamate]

— patent US10865208B2, “ATG7 inhibitors and the uses thereof” (Millennium Pharmaceuticals, Inc., priority 2016, dated 2020)
